# Legend:
# [1] = tested on: NCI-H1975 tumor xenografts; test: In vivo efficacy of intermittent Example 32 dosing schedules in the H1975 xenograft model (Example 73); set-up: species or system mice; conditions: oral, 19 to 29 days; osimertinib 2.5 mg/kg QD, Example 32 12.5, 25 or 50 mg/kg BID on continuous or intermittent schedules; combination compared to osimertinib alone, single agent relative to vehicle
# Experimental: (§1) Tumor volume was measured twice a week.
# MATERIALS AND METHODS: NCI-H1975 cells (a human NSCLC cell line with L858R and T790M mutations in the EGFR gene), were implanted subcutaneously in female NCr nude mice (Taconic Laboratories), 3×10^6 cells/mouse.
# [2] = tested on: pSTAT3 (Y705) in PC-9 tumors; test: pSTAT3 (Y705) levels in PC-9 tumor lysates (Western blot, Example 70); format: in vivo, mice; conditions: Example 32 12.5 and 50 mg/kg BID with gefitinib, last day of treatment, 2, 8 and 24 hours after the AM dose
# [3] = tested on: NCI-H1975 tumor xenografts; test: In vivo efficacy in the H1975 xenograft model (Example 69); set-up: species or system mice; conditions: oral, 18 days; osimertinib 2.5 mg/kg QD, Example 32 12.5, 25 or 50 mg/kg BID; combination compared to osimertinib alone, single agent relative to vehicle
# Experimental: as §1
# [4] = tested on: LG1049 non-small cell lung cancer PDX tumor xenografts; test: In vivo efficacy in the LG1049 xenograft PDX model (Example 72)
# Experimental: SUMMARY: LG1049 non-small cell lung cancer PDX tumor xenografts were grown subcutaneously in female NSG mice. […] Tumor volume was measured twice a week.
# (§2) MATERIALS AND METHODS: LG1049 tumor fragments were implanted subcutaneously in female NSG mice (JAX Stock No. 005557).
# [5] = tested on: pSTAT3 (Y705) in LG1049 tumors; test: pSTAT3 levels in LG1049 tumor lysates (Western blot, Example 72); format: in vivo, mice; conditions: Example 32 25 mg/kg BID, 5 days of treatment, 4H after the final dose
# Excerpt: MATERIALS AND METHODS: LG1049 tumor fragments were implanted subcutaneously in female NSG mice (JAX Stock No. 005557). Once tumor volumes reached ˜125-275 mm^3, mice were randomized into 5 groups (10 mice/group, average tumor volume 189 mm^3, range 138-253 mm^3).
# [6] = tested on: NCI-H1650 tumor xenografts; test: In vivo efficacy in the H1650 xenograft model (Example 71); set-up: species or system mice; conditions: oral, 21 days; gefitinib 6.25 mg/kg QD, Example 32 25 or 50 mg/kg BID; combination compared to single agent gefitinib
# Experimental: as §1
# [7] = tested on: pSTAT3 (Y705) in NCI-H1650 tumors; test: pSTAT3 levels in NCI-H1650 tumor lysates (Western blot, Example 71); format: in vivo, mice; conditions: measured after one day of treatment
# Experimental: Twenty-three days after cell implantation, the mice were randomized into 6 groups (9 mice/group, average tumor volume 257 mm^3, range 205-303 mm^3). […] Drug levels in plasma were measured by LC/MS, using a Linear Ion Trap Quadrupole LC/MS/MS Mass Spectrometer (QTRAP 5500 model 1024945-BB, AB Sciex Instruments), with separation on a Waters Xbridge C18 column.
# [8] = tested on: pSTAT3 (Y705) in NCI-H1975 tumors; test: pSTAT3 (Y705) levels in NCI-H1975 tumor lysates (pharmacodynamics, Example 69); format: in vivo, mice; conditions: Example 32 12.5, 25, 50 mg/kg BID, after one day of treatment, samples 2, 8 and 24 hours after the AM dose
# Experimental: MATERIALS AND METHODS: NCI-H1975 cells (a human NSCLC cell line with L858R and T790M mutations in the EGFR gene) tumor cells were implanted subcutaneously in female NCr nude mice (Taconic Laboratories), 3×10^6 cells/mouse. […] Drug levels in plasma were measured by LC/MS, using a Linear Ion Trap Quadrupole LC/MS/MS Mass Spectrometer (QTRAP 5500 model 1024945-BB, AB Sciex Instruments), with separation on a Waters Xbridge C18 column.
# [9] = tested on: pEGFR (pY1173) in LG1049 tumors; test: pEGFR levels in LG1049 tumor lysates (Western blot, Example 72); format: in vivo, mice; conditions: osimertinib 25 mg/kg QD, 5 days of treatment, 4H after the final dose
# Excerpt: as §2
SMILES,"antitumor activity (tumor volume, FIG. 31A-31E) [1]",duration of pSTAT3 knockdown in tumors (FIG. 24) [2],"antitumor activity (tumor volume, FIG. 19) [3]","body weight (FIG. 29) ([4]; mouse, in vivo)","antitumor activity / tumor regression (tumor volume, FIG. 28) ([4]; oral, osimertinib 25 mg/kg QD 28 days, Example 32 25 mg/kg BID (18 days as single agent), combination compared to osimertinib alone, single agent relative to vehicle)",knockdown of pSTAT3 in tumors (FIG. 30) [5],"antitumor activity (tumor volume, FIG. 25) [6]",knockdown of pSTAT3 in tumors (FIG. 27) [7],pSTAT3 knockdown in tumors (FIG. 21) [8],knockdown of pEGFR in tumors (FIG. 30) [9],"body weight (FIG. 29) ([4]; LG1049 tumor bearing NSG mice, weight loss attributed to tumor growth)",tumor regrowth when treatment was stopped after 28 days ([4]; after 28 days of dosing)
"COc1nn(C)cc1Nc1nccc(-c2c[nH]c3c(NC(=O)[C@@H](C)N4CCN(C)CC4)cccc23)n1 [Example 32, (2R)-N-(3-{2-[(3-methoxy-1-methyl-1H-pyrazol-4-yl)amino]pyrimidin-4-yl}-1H-indol-7-yl)-2-(4-methylpiperazin-1-yl)propanamide]",no significant activity relative to vehicle control treatment,dose dependent increase in the duration of pSTAT3 knockdown,only weak antitumor activity,significant weight loss,no significant activity relative to vehicle control treatment,robust knockdown,only modest antitumor activity,Knockdown of pSTAT3 was observed,dose dependent increase in pSTAT3 knockdown,–,–,–
"C=CC(=O)Nc1cc(Nc2nccc(-c3cn(C)c4ccccc34)n2)c(OC)cc1N(C)CCN(C)C [osimertinib, reference compound]",–,–,–,–,–,–,–,–,–,robust knockdown,lack of significant weight loss,tumors rapidly regrew

# — patent US11247983B2, “Compounds and methods for inhibiting JAK” (Dizal (Jiangsu) Pharmaceutical Co., Ltd., priority 2015, dated 2022)
